What all share (assay type): cell-based
In one assay the test system is anaerobes. As to the kind of experiment: Kill study: ATP test of anaerobically captured oil field influent water (LuminUltra QUO-M kit). Set-up: ATP readings: unit not given here. The protocol:
In an oil and gas field in the western USA, MCA was tested in comparison with methylene bis(thiocyanate), (MTC) in a weekly batch treatment and is fed for 2-3 hours at 200 ppm (as product).
A solution of MCA Working Solution was prepared using Busan 1474 and Bulab 6004 (high alkalinity bleach). The reaction of these two components diluted in water at the proper equimolar ratios and proper pH produces a stable high concentration of biocide. A known concentration of MCA was added to a specific volume of influent water which had to be captured under anaerobic conditions and kept in an incubation chamber when not being used because the primary organisms of interest (anaerobes) are very susceptible to both oxygen and temperature changes. Therefore, as soon as the samples were collected, the head space of the bottles were purged with Nitrogen and then sealed with a rubber stopper (which will permit the insertion of a hypodermic needle) and then crimped into place with an aluminium seal.
Owing to the fact that there is significant oil in the water, the organisms are coated with a fine layer of organic material, thus necessitating the usage of an ATP test kit which washes away the layer of oil prior to ATP testing. The kit employed for this testing is manufactured by LuminUltra and is identified as the Quench Gone Organic-Modified (QUO-M) test kit.
Furthermore, in order to ensure that adequate MCA was present to penetrate this oil layer (and have an apples to apples comparison in performance), the MCA was dosed at the same level as the MTC at a concentration of 200 ppm.
The MCA was tested at intervals between this period (30, 60, 180, and 240 minutes).
Bottles were collected and the initial concentration of ATP for each bottle was measured and then dosed with 200 ppm of MCA and MTC respectively and one bottle was not dosed to serve as a growth control.

In assay [1] the test system is total biological organism concentration. In words: ATP test of biocides in produced water from oil field water/oil/gas separator (LuminUltra QBG kit). From the text: A one-liter sample of water was obtained from the mechanical water/oil/gas separator from a producing oil field in the western USA. The one liter sample was separated into four aliquots, one control and three test samples.
Adenosine triphosphate (ATP) is the energy source for all living organisms. Measurement of the ATP concentration in a water sample gives a good indication of the concentration of total biological organism concentration. A number of different companies including 3M and LuminUltra manufacture test kits. For this testing, the LuminUltra QBG test kit was employed.
Each of the non-control samples were dosed with one of three different biocides: MTC-10 (a 10% solution of methylenebis(thiocyanate) at 22 ppm active concentration; Diald 25 (a 25% solution of Glutaraldehyde) at 50 ppm active; and monochloramine (MCA) at a concentration of 7.5 ppm. After 30 and 60 minutes of exposure, ATP levels were measured and recorded.

The nature of assay [2]: Previous testing of kill time and cell penetration. The protocol:
Previous testing had shown that the MCA was killing in 20 minutes what it took other biocides (i.e. MTC and Glutaraldehyde) to accomplish in four hours.

Setting [3] is: 0 min, initial reading of the bottle before dosing at 200 ppm.
[4] abbreviates: 180 min after dosing at 200 ppm.
Where [5] appears, read: 240 min after dosing at 200 ppm.

Each structure is given as a SMILES string.

As for `N#CSCSC#N` [MTC, methylene bis(thiocyanate), reference compound], the ATP readings was found to be 217.3 in the assay on anaerobes (setting [3]), 16.9 with anaerobes (setting [4]) and 6.12 in the assay on anaerobes (setting [5]). Also, the “Overall performance in kill study compared with MCA” value with anaerobes (200 ppm, FIG. 4 / Table 1) was “performed slightly better”. For the same compound, the “Percent reduction in ATP level (percent kill)” value in the assay with anaerobes (240 min, 200 ppm) worked out at 0.97%.
On to `NCl` [MCA, monochloramine], for which the “Effectiveness relative to MTC-10 on an activity percentage basis” value in assay [1] (30 minutes and 60 minutes of exposure, Figure-3) is “greater than 3 ×”. For the same compound, the “Performance better than Diald-25 on an activity percentage basis” value in assay [1] (60 minutes of exposure, Figure-3) is listed as “more than 20%”. Besides, the “Performance on a product percentage basis compared with Diald-25” value in assay [1] (MCA 7.5 ppm vs Diald 25 50 ppm active, ATP after 30 and 60 minutes, Figure-2) is “better than Diald-25”. The “Performance on a product percentage basis compared with MTC-10” value in assay [1] (MCA 7.5 ppm vs MTC-10 22 ppm active, ATP after 30 and 60 minutes, Figure-2) is “as well as MTC-10”. Besides, in assay [1] (first 30 minutes, Figure-3), the “Performance relative to Diald-25 on an activity percentage basis” value was around 2 ×. Besides, the Cell penetration entry in assay [2] (compared with MTC) was “better than for MTC”. Besides, the “Time to accomplish kill” value in assay [2] (previous testing) is 20 min. For the same compound, the ATP readings amounted to 321.4 with anaerobes (setting [3]); 26.05 in the assay on anaerobes (30 min after dosing at 200 ppm); 19.2 with anaerobes (60 min after dosing at 200 ppm); 17.4 with anaerobes (setting [4]); 11.9 with anaerobes (setting [5]). The “Percent reduction in ATP level (percent kill)” value in the assay on anaerobes (30 min, 200 ppm) is reported as 92%; with anaerobes (60 min, 200 ppm), 94%; with anaerobes (180 min, 200 ppm), 95%; in the assay on anaerobes (240 min, 200 ppm) it was 96%.
